Assay results from patent EP4111863A1, “PHOSPHORUS USE EFFICIENCY ENHANCERS AS PLANT GROWTH PROMOTORS” (EuroChem Antwerpen, priority 2021, dated 2023).

Legend:
Arabidopsis = Arabidopsis vertical plate growth assay (primary root length, shoot biomass); assay type: in vivo, Arabidopsis thaliana; settings: Table 2; low phosphate, versus control without compound
Protocol: (§1) All Arabidopsis plant experiments were performed using the Arabidopsis thaliana Columbia-0 background. The Arabidopsis pSPX1::GUS line is described in the […] 2008, 54: 965-975. For rice, the cultivar Nipponbare was used. For maize, the cultivars DKC 2931 and B104 were used for regular pot experiments and sand-based pot experiments, respectively. For soybean, the cultivar Primus was used. […] The medium was solidified due to the addition of 0,6% Gelrite, unless stated otherwise. In case of vertical plates (root length and root hair measurements), the medium was supplied with 0.5% of sucrose and 1 µM (low phosphate, 1 µM KH2PO4, 9.9 mM KCI), 10 µM (low phosphate 10 µM KH2PO4, 9.9 mM KCI) or 1.25 mM KH2PO4 (high phosphate). Arabidopsis seeds were stratified for 2 days at 4 °C before germination. Seedlings were germinated in climate-controlled growth chambers at 22 °C under continuous light (100 µmol m^-2 s^-1). Husked rice seeds were germinated on wetted Whatman paper for 2 days at 37 °C and then transferred to Sterivent boxes or square Petri dishes with solid medium. Maize and soybean seeds were wetted 24 hours at room temperature prior to sowing in pots.
Arabidopsis primary root growth experiments were done on MS1/2 on vertical standing plates and roots were measured 11 days after germination. Roots were imaged using a flatbed scanner (EPSON Expression 11000XL) and root length was measured using ImageJ software. Arabidopsis shoot biomass was determined in 11 days after germination and growth on vertical standing plates with modMS. Arabidopsis leaf area was measured 21 days after germination on horizontal plates with modMS medium. Plates were scanned from the top using a flatbed scanner (EPSON Expression 11000XL) and the visible leaf area was measured using ImageJ software. Rice plate experiments used vertically standing Petri dishes containing MS1/2 medium (low phosphate - 0.001 mM) solidified with 0.8% washed agar. Plant height was measured 11 days after germination. Rice box experiments used modMS medium and a low phosphate condition of 0.025 mM phosphate. Plant height was measured 13 days after germination. All growth experiments occurred with 10 µM of compound and in low phosphate conditions, unless stated otherwise. Controls always received the same DMSO concentration.

SPX1 = assay: Chemical activity assessment: SPX1 phosphate starvation biomarker, pSPX1::GUS reporter line, GUS stained area; assay type: in vivo, Arabidopsis thaliana; settings: Table 3; 50 µM compound, low phosphate modMS liquid medium, 7 days after germination; low phosphate control average of the same plate
Protocol: as §1
For the chemical activity assessment 3 to 8 seeds per well of Arabidopsis pSPX1::GUS line were sown in 96-well plates containing 150 µl of low phosphate modMS liquid medium containing 1% of sucrose. Compounds were added in 50 µM concentration, starting from a 5 mM stock of compounds solved in DMSO. Different chemical substances were separately added to different wells. Per plate, 16 control wells were used, 8 containing only the low phosphate medium and 1% DMSO, and 8 containing high phosphate medium and 1% DMSO. 7 days after germination, plates were scanned using a flatbed scanner (EPSON Expression 11000XL) and analyzed for leaf size. After scanning, the growth medium was replaced by GUS staining solution (see Plant Mol. Biol. Rep. 1994, 12: 37-42 for details) and incubated for 1.5 hours at 37 °C. The plates were scanned a second time and analyzed for GUS signal area. Measurements of both leaf area and GUS signal area were conducted by filtering out and measure the green and blue signal, respectively using ImageJ software. If the green leaf area was 50% or less than the control, samples were omitted. Additionally, all results were visually screened for leaf size and GUS signal.

| SMILES | Primary root length (in % versus control) (Arabidopsis) [%] | GUS (SPX1) stained area normalized to the number of seeds (pixels) (SPX1) |
| --- | --- | --- |
| Cc1nc(N2CCOCC2)sc1C(=O)NN [Compound 4.1] | 118 |  |
| CNC(=O)c1sc(N2CCOC(C)C2)nc1C (stereo not drawn) [Compound 4.3] | 122 |  |
| O=C(O)c1cc(Cl)nc(N2CCOCC2)c1 |  | 0 |
| c1cc2c(cc1Sc1nc(CN3CCOCC3)nc3sc4c(c13)CCC4)OCCO2 |  | 6 |
| Cc1ccc(S(=O)(=O)N2CCN(S(=O)(=O)N3CCOCC3)CC2)cc1 |  | 10 |
| Cc1cnc(CN2CCOC(c3ccc(C(F)(F)F)cc3)C2)o1 (stereo not drawn) |  | 46 |
| Cc1nc(C(C)(C)NCC(=O)N2CC(C)OC(C)C2)sc1C (stereo not drawn) |  | 34 |
| CC1CCCN(C(C)CNS(=O)(=O)N2CCOCC2)C1 (stereo not drawn) |  | 46 |
| CC1COCCN1C(=O)CCc1nc(-c2cccs2)no1 (stereo not drawn) |  | 17 |
| CN(C)c1nc(CN2CCOCC2CC(=O)c2ccco2)ns1 (stereo not drawn) |  | 330 |
| c1ccc2sc(CN3CCOC(c4nccs4)C3)nc2c1 (stereo not drawn) |  | 49 |
| CC(CNC(=O)N1CCCCC1c1cccn1C)CN1CCOCC1 (stereo not drawn) |  | 65 |
| CCC1CN(Cn2nc3ccccn3c2=S)CCO1 (stereo not drawn) |  | 3 |
| O=C1c2cccc3cccc(c23)C(=O)N1CCN1CCOCC1 |  | 29 |
| CC(C)(C)Nc1nn(CN2CCOCC2)c(=S)s1 |  | 7 |
| Cc1nc2c(cc(Oc3ccc(S(=O)(=O)N4CCOCC4)cn3)c3ccsc32)s1 |  | 26 |
| CCCCS(=O)(=O)N1CCOCC1c1noc(C(C)C)n1 (stereo not drawn) |  | 73 |
| CCC(CC)C(C(=O)NCc1cccc(C)c1)N1CCOCC1 (stereo not drawn) |  | 11 |
